Results on two molecules are retold here after patent publication US11426361B2, “Eye drops for treatment of irritation not due to infection” (Resdevco Research and Development Co. Ltd., priority 2017, dated 2022).

For this experiment, the system named is human corneal epithelial cells (HCEC cell line). Kind of experiment: Example 5: expression of barrier genes (Involucrin, Occludin, Filaggrin, Cadherin-1) at mRNA level by Q-PCR. The class given is cell-based. The settings on record: three hours. The procedure: An experiment was performed to investigate the effect in vitro of a solution containing glycerol on human corneal epithelial cells, in particular, on the expression of barrier genes Involucrin, Occludin, Filaggrin, and Cadherin-1.
Immortalized human corneal epithelial cells (HCEC cell line) cultured in DMEM/F12 with 5% FBS and 10 ng/ml human epidermal growth factor (Invitrogen—Gibco). The cells were treated for three hours with one of the following three compositions: (a) an aqueous solution of glycerol (0.27% w/v); (b) 20 μg/ml Polyinosinic:polycytidylic acid (p(I:C), an activator of TLR3 to induce inflammation; and (c) a combination of the two previous compositions.
The expression of the barrier genes was determined at the mRNA level by use of quantitative “real-time” PCR (Q-PCR). Q-PCR was performed on an ABI Prism 7000 sequence detection system (Applied Biosystems, Foster City, Calif.) using the 5′ nuclease assay. Total RNA was isolated using TRIzol (Invitrogen) and 3 μg of total RNA were reverse-transcribed into cDNA by using 15 U of AMV reverse transcriptase (Promega, Madison, Wis., USA) and 0.025 μg/μl random primers (Promega). PCR amplification was performed by using the TaqMan primers and probes. As internal controls, transcripts of cyclophilin A (PPIA) were determined.

Turning to `OCC(O)CO` [glycerol], the “effect on barrier-impairing actions of p(I:C) (barrier gene expression)” value (co-incubation with glycerol 0.27% during p(I:C) 20 μg/ml challenge) was “significantly prevented the barrier-impairing actions of the TLR3 agonist”.
Consider “Polyinosinic:polycytidylic acid [p(I:C)]”, for which the “expressions of Involucrin, Occludin, Filaggrin, and Cadherin-1” value (p(I:C) 20 μg/ml alone) is reported as “markedly decreased”.
